Data set [1] deals with T1, human SERT (Homo sapiens, UniProt P31645).
Data set [2] addresses T2, human NET (Homo sapiens, UniProt P23975).
Data set [3] addresses T3, human DAT (Homo sapiens, UniProt Q01959).
Experimental: (§1) In brief, the cells were washed twice with Krebs–Ringer–HEPES buffer (KHB; composition: 25 mM HEPES·NaOH, pH 7.4, 120 mM NaCl, 5 mM KCl, 1.2 mM CaCl2, and 1.2 mM MgSO4 supplemented with 5 mM D-glucose). Then, the diluted reference and sample compounds were added and incubated for 5 min to allow for equilibration with the transporters. Subsequently, the tritiated substrates were added and the reaction was stopped after 1 min (SERT and DAT) and 3 min (NET), respectively. Cells were lysed with 1% SDS and the released radioactivity was quantified by liquid scintillation counting. All determinations were performed in duplicate or triplicate.
(§2) The release of [^3H] labelled substrate was expressed as fractional rate (i.e., the radioactivity released within one fraction was expressed as a percentage of the total radioactivity present in the cells at the beginning of that fraction). Drug-induced release was calculated by subtracting the estimated basal release from total release during the first 8 min of drug exposure and is expressed as a percentage of radioactivity in the cell at the beginning of drug exposure. Data were normalized by using cpm values with no substance present (only solvent) as 100%. IC50 values were calculated using non-linear regression fits performed with Prism software (GraphPad 5.0, San Diego, CA, U.S.A.). Data transformed into Dixon plots were fitted by linear regression.
Data set [4] addresses T1, human SERT. The source holds these as a separate data set.
Experimental: (§3) For release studies, HEK-SERT, HEK-NET, or HEK-DAT cells were grown overnight on round glass coverslips (5-mm diameter, 40,000 cells per coverslip) placed in a 96-well plate and preloaded with 0.4 μM [^3H]dopamine, 0.1 μM [^3H]MPP+, or 0.4 μM [^3H]5-HT for 20 min at 37 °C in a final volume of 0.1 mL/well. […] A washout period of 40 min established a stable baseline for efflux of radioactivity; thereafter, substances were added and the experiment was started with the collection of fractions (2 min). At the end of the experiment, cells were lysed in 1% SDS and the released radioactivity was quantified by liquid scintillation counting.
(§4) The release of [^3H] labelled substrate was expressed as fractional rate (i.e., the radioactivity released within one fraction was expressed as a percentage of the total radioactivity present in the cells at the beginning of that fraction). Drug-induced release was calculated by subtracting the estimated basal release from total release during the first 8 min of drug exposure and is expressed as a percentage of radioactivity in the cell at the beginning of drug exposure. Data were normalized by using cpm values with no substance present (only solvent) as 100%.
The target of data set [5] is T2, human NET. This is another data set of the same source.
Experimental: as §3, §4
For data set [6], the target named is T3, human DAT. This is another data set of the same source.
Experimental: as §3, §4
Data set [7] concerns the target T1, human SERT. Put plainly: cell-based.
Data set [8] has as its target T2, human NET. Put plainly: cell-based.
Data set [9] deals with T3, human DAT. Description: cell-based.
Experimental: as §1, §2
For data set [10] the following is noted: stated without reference; cited from earlier work.
For data set [11] the following is noted: after levamisole administration; ref Hess et al., 2013; cited from earlier work.
A further data set is described as follows: in vivo. The settings on record: human, plasma, po, 50 mg.
For data set [12] the following is noted: ref Lin and Tsai, 2006; cited from earlier work.
Setting [13] is: IC50 uptake inhibition NET in the absence of cocaine.
[14] abbreviates: IC50 uptake inhibition DAT in the absence of cocaine, allosteric interaction experiment, dopamine uptake.
The mark [15] stands for this setting: IC50 uptake inhibition DAT, HEK293 stably expressing human DAT, substrate [3H]dopamine 0.1 μM, 5 min preincubation.

“And” between values parts separate entries of the source, which are not always exact repeats. Equal entries are not always repeated. “Also recorded” adds a separate entry of the source. Where two headings read alike, the source gives them in different places.

T3 sequence (Q01959 whole entry): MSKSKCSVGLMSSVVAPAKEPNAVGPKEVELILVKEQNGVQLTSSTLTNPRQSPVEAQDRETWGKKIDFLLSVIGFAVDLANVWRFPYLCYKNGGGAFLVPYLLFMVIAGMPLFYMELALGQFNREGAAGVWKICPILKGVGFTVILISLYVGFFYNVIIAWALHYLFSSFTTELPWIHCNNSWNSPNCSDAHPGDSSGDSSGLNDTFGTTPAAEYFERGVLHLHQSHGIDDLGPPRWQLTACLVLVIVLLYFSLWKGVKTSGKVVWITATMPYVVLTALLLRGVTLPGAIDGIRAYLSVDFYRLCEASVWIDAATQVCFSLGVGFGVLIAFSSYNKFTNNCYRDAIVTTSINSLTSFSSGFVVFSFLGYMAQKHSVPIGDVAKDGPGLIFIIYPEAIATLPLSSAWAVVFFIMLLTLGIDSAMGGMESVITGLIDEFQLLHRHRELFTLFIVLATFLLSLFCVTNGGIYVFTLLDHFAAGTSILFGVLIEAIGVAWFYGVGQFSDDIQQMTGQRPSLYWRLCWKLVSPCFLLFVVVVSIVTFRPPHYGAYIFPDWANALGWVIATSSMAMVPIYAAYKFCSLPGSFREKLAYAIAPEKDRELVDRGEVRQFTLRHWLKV
T2 sequence (P23975 whole entry): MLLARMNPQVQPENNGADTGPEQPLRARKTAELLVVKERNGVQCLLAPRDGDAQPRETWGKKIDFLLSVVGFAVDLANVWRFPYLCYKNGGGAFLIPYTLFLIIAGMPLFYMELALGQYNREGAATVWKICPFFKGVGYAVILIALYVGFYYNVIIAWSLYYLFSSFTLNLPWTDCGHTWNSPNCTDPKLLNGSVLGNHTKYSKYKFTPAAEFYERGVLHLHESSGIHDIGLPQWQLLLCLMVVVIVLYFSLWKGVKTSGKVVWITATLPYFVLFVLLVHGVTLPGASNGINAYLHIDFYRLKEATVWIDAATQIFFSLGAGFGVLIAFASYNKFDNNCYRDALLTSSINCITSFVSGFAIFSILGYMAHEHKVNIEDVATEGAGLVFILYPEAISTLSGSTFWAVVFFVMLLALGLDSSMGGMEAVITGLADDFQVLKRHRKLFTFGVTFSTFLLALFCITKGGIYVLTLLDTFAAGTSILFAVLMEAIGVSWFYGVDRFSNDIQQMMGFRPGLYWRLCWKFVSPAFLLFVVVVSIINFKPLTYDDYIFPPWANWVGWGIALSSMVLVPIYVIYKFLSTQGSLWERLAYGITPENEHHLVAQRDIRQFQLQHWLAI
T1 sequence (P31645 whole entry): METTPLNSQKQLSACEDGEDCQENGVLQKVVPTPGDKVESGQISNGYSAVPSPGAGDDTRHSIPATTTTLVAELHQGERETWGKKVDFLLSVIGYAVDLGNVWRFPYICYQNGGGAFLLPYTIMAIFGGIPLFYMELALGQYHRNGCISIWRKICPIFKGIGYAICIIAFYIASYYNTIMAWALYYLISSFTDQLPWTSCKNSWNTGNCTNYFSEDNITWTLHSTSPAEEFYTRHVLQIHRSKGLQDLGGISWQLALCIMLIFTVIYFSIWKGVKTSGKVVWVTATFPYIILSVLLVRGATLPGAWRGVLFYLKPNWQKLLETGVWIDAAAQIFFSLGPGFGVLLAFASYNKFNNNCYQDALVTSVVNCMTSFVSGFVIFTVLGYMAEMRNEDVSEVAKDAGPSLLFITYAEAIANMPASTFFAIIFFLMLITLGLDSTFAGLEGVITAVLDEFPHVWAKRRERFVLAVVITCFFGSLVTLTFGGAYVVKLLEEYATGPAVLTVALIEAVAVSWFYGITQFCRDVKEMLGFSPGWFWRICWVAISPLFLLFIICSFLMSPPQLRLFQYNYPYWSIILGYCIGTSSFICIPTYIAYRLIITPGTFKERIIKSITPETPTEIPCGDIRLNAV

With `NC1=NCC(c2ccccc2)O1` (stereo not drawn) [aminorex], the “Dixon plot: binding relative to cocaine at SERT” value on human SERT [1] is reported as “mutually exclusive manner”. On human SERT [1], the “SERT inhibited at higher concentrations than NET and DAT” value came out at 20 fold. Besides, the “SERT inhibitory effect compared to cocaine” value at human SERT [1] is reported as “more than 10 fold”. Also, the “Dixon plot: binding relative to cocaine at NET” value at human NET [2] was “mutually exclusive manner”. The “Dixon plot: binding relative to cocaine at DAT” value at human DAT [3] (uptake inhibition with one inhibitor varied at fixed concentration of the other) is recorded as “mutually exclusive manner”. The “substrate efflux SERT” value at human SERT [4] was “strong release; also recorded: significant substrate release”. Besides, the “substrate efflux NET” value at human NET [5] (3 or 10 μM aminorex, presence and absence of 10 μM monensin) was “slight increase; also recorded: only a slight response”. Besides, the “substrate efflux DAT” value on human DAT [6] (50 μM aminorex, presence and absence of 10 μM monensin) is listed as “no releasing effect; also recorded: completely absent”. Besides, the 50% inhibitory concentration (IC50) against human SERT [7] (IC50 uptake inhibition SERT) was 18.4 ± 1.12 µM; against human SERT [7] (IC50 uptake inhibition SERT in the absence of cocaine), 26.3 ± 1.03 µM; against human NET [8] (IC50 uptake inhibition NET) it was 0.33 µM and < 1 µM; against human NET [8] (setting [13]) it was 1.97 ± 1.2 µM; at human DAT [9] (setting [14]), 0.71 ± 1.05 µM; against human DAT [9] (setting [15]) it was 0.85 µM and 0.855 µM and < 1 µM. Moreover, in [10], the pKa is reported as 7.4. In addition, the “time aminorex could be detected in human urine” value in [11] was “up to 54 h”.
With `c1ccc([C@H]2CN3CCSC3=N2)cc1` [levamisole], the “less potent than cocaine in blocking norepinephrine uptake” value at human NET [2] worked out at 100 fold. The “less potent than cocaine in blocking dopamine uptake” value on human DAT [3] (relative to cocaine) amounted to 300 fold. Further, at human NET [5] (100 μM levamisole, absence of monensin, [3H]MPP+ preloaded), the “substrate efflux NET” value is listed as “slight increase; also recorded: slight increased substrate efflux”. On human DAT [6] (100 μM levamisole, absence of monensin, [3H]dopamine preloaded), the “substrate efflux DAT” value was “no efflux was observed; also recorded: could not detect substrate efflux”. Further, the peak concentration (Cmax) in the data set “in vivo” was roughly 1500 nM. Besides, the IC50 against human NET [8] (IC50 uptake inhibition NET) amounted to 74.5 µM; against human NET [8] (setting [13]), 521 ± 2.3 µM; against human DAT [9] (setting [14]), 476 ± 1.54 µM; against human DAT [9] (setting [15]), 209.9 ± 1.31 µM. Moreover, the pKa in [10] is given as 7. Further, in data set [12], the “blood–brain barrier permeation” value was “readily permeates the blood–brain barrier”.

(Values after paper PMC4077236 (Neurochemistry International, 2014).)
